Measurements from US9796662B2 (priority 2010, dated 2017).

Row | SMILES | Emulsion stability, mL separation, 1 h, Adjuvant [mL] | Emulsion stability, mL separation, 1 h, Anionic [mL] | Emulsion stability, mL separation, 1 h, Nonionic [mL] | Emulsion stability, mL separation, 24 h, Adjuvant [mL] | Emulsion stability, mL separation, 24 h, Anionic [mL] | Emulsion stability, mL separation, 24 h, Nonionic [mL]
1 | CC/C=C/CCCCCCCC(=O)OCC[N+](C)(C)C [C12-7, C12 DMEA Ester Quat] | 0 | 0 | 0 | 0 | 0 | 0
2 | C=CCCCCCCCC(=O)OCC[N+](C)(C)C [C10-7, C10 DMEA Ester Quat] | 0 | 0 | 0 | 0 | 0 | 0
3 | C[N+](C)(C)CCOC(=O)CCCCCCC/C=C/CCCCCCCC(=O)OCC[N+](C)(C)C [Mix-16, C18 diMEA DiQuat] | 0.25 | 0 | – | 0.25 | 0 | –
